Key:
[1] = target: T1, HaloTag® protein (HT7) (Rhodococcus rhodochrous, UniProt P0A3G2, A155T/A167V/A172T/A224E/C128F/C176G/D78G/E160K/E257K/H272N/K175M/K195N/L47V/L88M/N227D/S58T/T264A/Y273L/Y87F); assay: 1-Photon spectroscopy and quantum yield of HaloTag® conjugates; assay type: physicochemical; settings: absence vs presence of excess HaloTag® protein
T1 construct: 6xHis (N); T7 tag (gene 10 leader) (N); Xpress tag (N); made in house; host or cells: bacterial expression (vector pRSET-A)
Experimental: HaloTag® protein purification. The bacterial expression vector pRSET-A (Invitrogen) was used to recombinantly express HaloTag® protein (HT7; Promega).^45 The soluble 6×His-Tagged HaloTag® protein was affinity purified by immobilized metal affinity chromatography (IMAC) on a 5-mL Fast Flow HiTrap Sepharose 6 column (Cytiva) with a 0-200 mM imidazole elution gradient using an Avant Protein Purification System (ÄKTA). A280 peak fractions were pooled, concentrated by a spin concentrator, and dialyzed 3× into tris-buffered saline (TBS). The amino acid sequence of HaloTag® protein (HT7) expressed from pRSET-A is SEQ ID NO: 1.
1-Photon spectroscopy of HaloTag® ligands and HaloTag® conjugates. […] All measurements were taken at ambient temperature (22 ±2° C.). Absorption spectra were recorded on a Cary Model 100 spectrometer (Agilent) using 1-cm path length 1.0-mL quartz microcuvettes from Starna Cells. Fluorescence spectra were recorded on a Cary Eclipse fluorometer (Varian) using 1-cm path length 3.5-mL quartz cuvettes (Starna Cells). […] An aliquot of HaloTag® protein (1.5 equiv) was added, and the resulting mixture was incubated until a consistent absorbance signal was observed (60-120 min). To measure the fold-increase of absorbance upon HaloTag® binding, a “no HaloTag®” control experiment was performed where an equivalent volume of TBS blank was added in place of the protein. […]

[2] = tested on: HaloTag®-TOMM20, HaloTag®-Sec61β, HaloTag®-histone H2B fusion proteins; assay type: cell-based
Sequence of HaloTag®-TOMM20, HaloTag®-Sec61β, HaloTag®-histone H2B fusion proteins (as listed by the source): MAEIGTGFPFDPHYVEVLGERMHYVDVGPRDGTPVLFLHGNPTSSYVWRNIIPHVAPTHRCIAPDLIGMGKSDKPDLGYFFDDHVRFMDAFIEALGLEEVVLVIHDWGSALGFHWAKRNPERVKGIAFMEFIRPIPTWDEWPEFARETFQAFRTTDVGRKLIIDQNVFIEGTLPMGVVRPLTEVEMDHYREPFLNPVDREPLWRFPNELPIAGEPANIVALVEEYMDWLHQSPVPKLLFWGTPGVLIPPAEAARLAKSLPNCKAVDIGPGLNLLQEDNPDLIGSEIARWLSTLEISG
Experimental: (§1) U2OS cell culture, labeling, and fluorescence microscopy. U2OS cells (ATCC) were cultured in Dulbecco's modified Eagle medium (DMEM, phenol red-free; Life Technologies) supplemented with 10% (v/v) fetal bovine serum (FBS, Life Technologies), 1 mM GlutaMAX (Life Technologies) and maintained at 37° C. in a humidified 5% (v/v) CO2 environment. These cell lines undergo regular mycoplasma testing by the Janelia Cell Culture Facility. U2OS cells stably expressing an integrated HaloTag®-histone H2B fusion protein (U2OS.H2B.HaloTag®) were used for nuclear imaging and imaged 18-24 h post-plating. […]
(§2) Live cell imaging with biotin-rhodamine HaloTag® ligands. Having evaluated biotin ligands 12-15 in vitro, their ability to label HaloTag® fusions in live mammalian cells was tested. […] Quantification of the intracellular fluorescence signal from JF549 and msGFP channel further confirmed the poor labeling from 12 (FIG. 9).

[3] = target: T2, HaloTag®-PDGFR fusion protein (Rhodococcus rhodochrous, UniProt P0A3G2, A155T/A167V/A172T/A224E/C128F/C176G/D78G/E160K/E257K/H272N/K175M/K195N/L47V/L88M/N227D/S58T/T264A/Y273L/Y87F); assay: Live-cell labeling of cell surface HaloTag® fusion in U2OS cells (Airyscan fluorescence microscopy); assay type: cell-based; settings: 100 nM, 1 h
T2 construct: expressed in transfected cells; host or cells: U2OS, transient nucleofection
T2 sequence (P0A3G2 other isoform, or with tags, fused parts or gaps with the stated changes): as the sequence (as listed by the source) above
Experimental: as §1, §2

T1 sequence (P0A3G2 other isoform, or with tags, fused parts or gaps with the stated changes): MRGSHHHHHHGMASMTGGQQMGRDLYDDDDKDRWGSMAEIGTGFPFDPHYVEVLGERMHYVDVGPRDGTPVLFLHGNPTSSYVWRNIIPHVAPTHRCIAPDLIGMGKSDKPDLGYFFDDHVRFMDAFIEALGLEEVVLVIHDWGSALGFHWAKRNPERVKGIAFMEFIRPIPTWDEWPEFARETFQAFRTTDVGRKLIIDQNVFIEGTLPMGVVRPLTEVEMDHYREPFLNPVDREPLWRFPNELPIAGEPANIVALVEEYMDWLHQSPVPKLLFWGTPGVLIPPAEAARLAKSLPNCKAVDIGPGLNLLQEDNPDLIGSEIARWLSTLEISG

Molecule: C[Si]1(C)C2=CC(=[N+]3CC(C(=O)NCCOCCOCCNC(=O)CCCC[C@@H]4SC[C@@H]5NC(=O)N[C@@H]54)C3)C=CC2=C(c2cc(C(=O)NCCOCCOCCCCCCCl)ccc2C(=O)[O-])c2ccc(N3CCC3)cc21 (some centres unmarked) [compound 14, Biotin-JF646-HaloTag® ligand]
- fluorogenicity upon conjugation to the HaloTag® protein (fold-increase of absorbance) [1]: 2.5 ×

Molecule: C[Si]1(C)C2=CC(=[N+]3CC(F)(C(=O)NCCOCCOCCNC(=O)CCCC[C@@H]4SC[C@@H]5NC(=O)N[C@@H]54)C3)C=CC2=C(c2cc(C(=O)NCCOCCOCCCCCCCl)ccc2C(=O)[O-])c2ccc(N3CC(F)C3)cc21 (some centres unmarked) [compound 15, Biotin-JF635-HaloTag® ligand]
- fluorogenicity upon conjugation to the HaloTag® protein (fold-increase of absorbance) [1]: 14.7 ×

Molecule: Biotin-JF549-HaloTag® ligand [compound 12]
- cell-permeability [2]: poor cell-permeability
- labeling of intracellular HaloTag® fusions ([2]; live U2OS cells, 100 nM, 1 h, mitochondria, ER, nucleus): did not show an appreciable signal
- labeling of extracellular HaloTag®-PDGFR fusion [3]: robust labeling of the cellular membrane

— patent US20240239818A1, “COMPOUNDS AND COMPOSITIONS COMPRISING FLUOROPHORES FOR USE IN VISUALIZATION AND PURIFICATION OR MANIPULATION” (priority 2022, published 2024)
